The values below come from ChEMBL document CHEMBL1152361, “The application of phosphoramidate ProTide technology to the potent anti-HCV compound 4'-azidocytidine (R1479)” (Bioorg Med Chem Lett, 2009).

For assay [1], the system named is Hepatitis C virus. In words: Antiviral activity against HCV Con1 GT1b by replicon assay. In kind it is functional, organism-based, Hepacivirus hominis. The settings on record: Hepatitis C virus, Con1 GT1b.
Assay [2] relates to Hepatitis C virus. In words: Antiviral activity against HCV Con1 GT1b at 100 uM by replicon assay. In kind it is functional, Hepacivirus hominis.

`CC(C)(C)OC(=O)[C@H](Cc1ccccc1)NP(=O)(OC[C@@]1(N=[N+]=[N-])O[C@@H](n2ccc(N)nc2=O)[C@H](O)[C@@H]1O)Oc1ccccc1` (stereo partly specified): in the assay on Hepatitis C virus [1], the IC50 worked out at 6.7 µM. This molecule also showed an inhibition at 100 µM in the assay with Hepatitis C virus [2] of 84%.

`CCOC(=O)C[C@H](NP(=O)(OC[C@@]1(N=[N+]=[N-])O[C@@H](n2ccc(N)nc2=O)[C@H](O)[C@@H]1O)Oc1ccccc1)C(=O)OCC` (stereo partly specified) came in with an IC50 in the assay with Hepatitis C virus [1] of 4.4 µM. Besides, the inhibition at 100 µM in the assay with Hepatitis C virus [2] is 88%.

Regarding `CCOC(=O)CC[C@H](NP(=O)(OC[C@@]1(N=[N+]=[N-])O[C@@H](n2ccc(N)nc2=O)[C@H](O)[C@@H]1O)Oc1ccccc1)C(=O)OCC` (stereo partly specified), the IC50 in the assay with Hepatitis C virus [1] is 44 µM. Moreover, in the assay with Hepatitis C virus [2], the inhibition at 100 µM came out at 74%.
